# From PubChem BioAssay (NCI)
#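 All cell lines were grown in 96-well plates and treated with compound for 48 hours. TGI denotes the concentration required for complete inhibition of growth.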
# Assays:
# Test in all cases: inhibition of tumour cell growth, NCI panel, 48 h
# [1] = system: 786-0 renal
# [2] = system: A549 NSCLC
# [3] = system: ACHN renal
# [4] = system: BT-549 breast
# [5] = system: CAKI-1 renal
# [6] = system: CCRF-CEM leukemia
# [7] = system: COLO 205 colon
# [8] = system: DU-145 prostate
# [9] = system: EKVX NSCLC
# [10] = system: HCC-2998 colon
# [11] = system: HCT-116 colon
# [12] = system: HCT-15 colon
# [13] = system: HL-60(TB) leukemia
# [14] = system: HOP-62 NSCLC
# [15] = system: HOP-92 NSCLC
# [16] = system: HS 578T breast
# [17] = system: HT29 colon
# [18] = system: IGROV1 ovarian
# [19] = system: KM12 colon
# [20] = system: LOX IMVI melanoma
# [21] = system: M14 melanoma
# [22] = system: MCF7 breast
# [23] = system: MDA-MB-231 breast
# [24] = system: MDA-MB-435
# [25] = system: MDA-N
# [26] = system: MOLT-4 leukemia
# [27] = system: NCI-H23 lung
# [28] = system: NCI-H460 lung
# [29] = system: NCI-H522 lung
# [30] = system: NCI/ADR-RES ovarian
# [31] = system: OVCAR-3 ovarian
# [32] = system: OVCAR-4 ovarian
# [33] = system: OVCAR-5 ovarian
# [34] = system: OVCAR-8 ovarian
# [35] = system: PC-3 prostate
# [36] = system: RXF 393 renal
# [37] = system: SF-268 CNS
# [38] = system: SF-295 CNS
# [39] = system: SF-539 CNS
# [40] = system: SK-MEL-2 melanoma
# [41] = system: SK-MEL-28 melanoma
# [42] = system: SK-MEL-5 melanoma
# [43] = system: SK-OV-3 ovarian
# [44] = system: SN12C renal
# [45] = system: SNB-19 CNS
# [46] = system: SNB-75 CNS
# [47] = system: SW-620 colon
# [48] = system: TK-10 renal
# [49] = system: U251 CNS
# [50] = system: UACC-257 melanoma
# [51] = system: UACC-62 melanoma
# [52] = system: UO-31 renal
# [53] = system: K-562 leukemia
# [54] = system: MALME-3M melanoma
# [55] = system: NCI-H226 lung
# [56] = system: RPMI-8226 leukemia
# [57] = system: SR leukemia
# [58] = system: A498 renal
compound,measurement,setting,value
Cc1ccc(NC(=O)/C(CC2N=c3c(ccc4c(O)c5ccccc5c(O)c34)=NC2O)=N/NC(C)(C)C)cc1 (stereo not drawn),TGI,[1],17.5 µM
same,TGI,[2],> 100 µM
same,TGI,[3],38.6 µM
same,TGI,[4],> 100 µM
same,TGI,[5],25.6 µM
same,TGI,[6],7.26 µM
same,TGI,[7],> 100 µM
same,TGI,[8],39.5 µM
same,TGI,[9],> 100 µM
same,TGI,[10],78.5 µM
same,TGI,[11],29.6 µM
same,TGI,[12],44.5 µM
same,TGI,[13],28.1 µM
same,TGI,[14],43.9 µM
same,TGI,[15],56.5 µM
same,TGI,[16],54.8 µM
same,TGI,[17],43 µM
same,TGI,[18],83.5 µM
same,TGI,[19],> 100 µM
same,TGI,[20],25.3 µM
same,TGI,[21],73.6 µM
same,TGI,[22],> 100 µM
same,TGI,[23],18.8 µM
same,TGI,[24],> 100 µM
same,TGI,[25],> 100 µM
same,TGI,[26],22.6 µM
same,TGI,[27],83.9 µM
same,TGI,[28],26.4 µM
same,TGI,[29],97.2 µM
same,TGI,[30],20.2 µM
same,TGI,[31],51.7 µM
same,TGI,[32],45.1 µM
same,TGI,[33],> 100 µM
same,TGI,[34],21.9 µM
same,TGI,[35],78.1 µM
same,TGI,[36],44.2 µM
same,TGI,[37],59 µM
same,TGI,[38],> 100 µM
same,TGI,[39],25.9 µM
same,TGI,[40],81.9 µM
same,TGI,[41],39.3 µM
same,TGI,[42],24.2 µM
same,TGI,[43],33.6 µM
same,TGI,[44],44.8 µM
same,TGI,[45],> 100 µM
same,TGI,[46],91.1 µM
same,TGI,[47],70.2 µM
same,TGI,[48],39.6 µM
same,TGI,[49],63.4 µM
same,TGI,[50],> 100 µM
same,TGI,[51],45.8 µM
same,TGI,[52],17.5 µM
CC(CCOc1c2ccoc2cc2oc(=O)ccc12)C1=CC(=O)C(C)(C)O1 (stereo not drawn),TGI,[1],> 100 µM
same,TGI,[2],> 100 µM
same,TGI,[3],> 100 µM
same,TGI,[4],> 100 µM
same,TGI,[5],> 100 µM
same,TGI,[6],> 100 µM
same,TGI,[7],> 100 µM
same,TGI,[8],> 100 µM
same,TGI,[9],> 100 µM
same,TGI,[10],> 100 µM
same,TGI,[11],> 100 µM
same,TGI,[12],> 100 µM
same,TGI,[13],> 100 µM
same,TGI,[14],> 100 µM
same,TGI,[15],> 100 µM
same,TGI,[16],> 100 µM
same,TGI,[17],> 100 µM
same,TGI,[18],> 100 µM
same,TGI,[53],> 100 µM
same,TGI,[19],> 100 µM
same,TGI,[20],> 100 µM
same,TGI,[21],> 100 µM
same,TGI,[54],> 100 µM
same,TGI,[22],> 100 µM
same,TGI,[23],> 100 µM
same,TGI,[24],> 100 µM
same,TGI,[25],> 100 µM
same,TGI,[26],> 100 µM
same,TGI,[55],> 100 µM
same,TGI,[27],> 100 µM
same,TGI,[28],> 100 µM
same,TGI,[29],71.3 µM
same,TGI,[30],> 100 µM
same,TGI,[31],> 100 µM
same,TGI,[32],> 100 µM
same,TGI,[33],> 100 µM
same,TGI,[34],> 100 µM
same,TGI,[35],> 100 µM
same,TGI,[56],> 100 µM
same,TGI,[36],> 100 µM
same,TGI,[37],> 100 µM
same,TGI,[38],> 100 µM
same,TGI,[39],> 100 µM
same,TGI,[40],> 100 µM
same,TGI,[41],> 100 µM
same,TGI,[42],> 100 µM
same,TGI,[43],> 100 µM
same,TGI,[44],> 100 µM
same,TGI,[45],> 100 µM
same,TGI,[57],> 100 µM
same,TGI,[47],> 100 µM
same,TGI,[48],> 100 µM
same,TGI,[49],> 100 µM
same,TGI,[50],> 100 µM
same,TGI,[51],> 100 µM
same,TGI,[52],> 100 µM
COc1ccc(-c2csc(-n3c(-c4ccccc4)nc4c(Br)cc(Br)cc4c3=O)n2)cc1,TGI,[1],54.4 µM
same,TGI,[58],65.9 µM
same,TGI,[2],> 100 µM
same,TGI,[3],> 100 µM
same,TGI,[4],88.8 µM
same,TGI,[5],> 100 µM
same,TGI,[6],43.6 µM
same,TGI,[7],> 100 µM
same,TGI,[8],> 100 µM
same,TGI,[9],35.1 µM
same,TGI,[10],> 100 µM
same,TGI,[11],77.1 µM
same,TGI,[12],> 100 µM
same,TGI,[13],49 µM
same,TGI,[14],> 100 µM
same,TGI,[15],46.7 µM
same,TGI,[16],> 100 µM
same,TGI,[17],> 100 µM
same,TGI,[18],> 100 µM
same,TGI,[53],58.7 µM
same,TGI,[19],> 100 µM
same,TGI,[20],> 100 µM
same,TGI,[21],96.4 µM
same,TGI,[54],59.2 µM
same,TGI,[22],> 100 µM
same,TGI,[23],> 100 µM
same,TGI,[24],75.4 µM
same,TGI,[25],67.7 µM
same,TGI,[26],> 100 µM
same,TGI,[55],90.7 µM
same,TGI,[27],69.4 µM
same,TGI,[28],> 100 µM
same,TGI,[29],> 100 µM
same,TGI,[30],85.5 µM
same,TGI,[31],> 100 µM
same,TGI,[32],> 100 µM
same,TGI,[33],> 100 µM
same,TGI,[34],> 100 µM
same,TGI,[35],> 100 µM
same,TGI,[56],31 µM
same,TGI,[36],76.4 µM
same,TGI,[37],67.1 µM
same,TGI,[38],> 100 µM
same,TGI,[40],> 100 µM
same,TGI,[41],57.8 µM
same,TGI,[42],36.9 µM
same,TGI,[43],> 100 µM
same,TGI,[45],> 100 µM
same,TGI,[46],> 100 µM
same,TGI,[47],> 100 µM
same,TGI,[48],> 100 µM
same,TGI,[49],> 100 µM
same,TGI,[50],> 100 µM
same,TGI,[51],> 100 µM
same,TGI,[52],68.2 µM
